From patent US6180356A (priority 1998, dated 2001)

Tests used:
[1] = target: diphtheria toxin (Corynephage beta, UniProt P00588); assay: biochemical; format: biochemical, Corynebacterium diphtheriae; settings: for quenching of the fluorescence of the 3 kD dextran: 10 μM inhibitor added before toxin, 3 kD CB-dextran, pH 4.5, control without agent about 75%; for inhibition of 3 kD dextran release / pore formation: relative to release in absence of target agent; for inhibition of membrane pore formation (in words): whole diphtheria toxin; for inhibition at 10 µM: read-out: inhibition of 3 kD dextran release / pore formation
[2] = target: T domain of diphtheria toxin (Corynephage beta, UniProt P00588); assay: biochemical; format: biochemical, Corynebacterium diphtheriae; settings: for quenching of 3 kD CB-dextran: control without inhibitor about 70%; for inhibition at 10 µM: read-out: inhibition of T domain membrane pore formation
[3] = tested on: diphtheria toxin translocation across Vero cell membranes; settings: Falnes and Olsnes 1995; cited from earlier work
[4] = 10 μM inhibitor, 1.0 μg of toxin
[5] = 10 μM inhibitor, about 5 μg of T domain

Chain of diphtheria toxin (P00588 33-567 limits assumed): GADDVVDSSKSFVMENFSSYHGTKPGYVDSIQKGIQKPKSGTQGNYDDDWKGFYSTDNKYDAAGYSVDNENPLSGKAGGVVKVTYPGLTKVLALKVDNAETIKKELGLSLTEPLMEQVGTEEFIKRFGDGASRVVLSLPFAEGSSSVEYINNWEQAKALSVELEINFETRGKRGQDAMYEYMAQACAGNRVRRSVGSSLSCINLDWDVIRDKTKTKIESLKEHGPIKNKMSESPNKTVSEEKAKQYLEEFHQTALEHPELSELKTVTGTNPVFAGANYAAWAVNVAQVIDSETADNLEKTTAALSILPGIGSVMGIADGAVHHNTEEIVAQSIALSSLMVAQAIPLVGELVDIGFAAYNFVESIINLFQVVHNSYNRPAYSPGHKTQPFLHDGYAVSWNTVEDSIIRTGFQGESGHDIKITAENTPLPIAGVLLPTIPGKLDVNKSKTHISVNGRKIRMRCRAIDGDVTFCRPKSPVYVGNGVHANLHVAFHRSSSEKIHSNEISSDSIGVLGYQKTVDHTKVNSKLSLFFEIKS
Chain of T domain of diphtheria toxin (P00588 234-410 limits assumed): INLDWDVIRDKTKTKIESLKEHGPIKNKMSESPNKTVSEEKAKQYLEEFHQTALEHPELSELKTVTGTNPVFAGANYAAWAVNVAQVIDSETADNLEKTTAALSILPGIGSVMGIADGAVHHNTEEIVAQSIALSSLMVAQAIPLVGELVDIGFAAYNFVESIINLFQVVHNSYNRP

Compound | quenching of the fluorescence of the 3 kD dextran ([1]; 1.0 μg of toxin) | inhibition of membrane pore formation (in words) ([1]; 10 μM inhibitor) | inhibition of T domain membrane pore formation (in words) [2, 5] | inhibition of diphtheria toxin translocation [3] | further results
O=C(Nc1cc(S(=O)(=O)[O-])cc2cc(S(=O)(=O)[O-])c(N=Nc3cc(Nc4nc(Cl)nc(Nc5ccc(S(=O)(=O)[O-])cc5)n4)ccc3S(=O)(=O)[O-])c(O)c12)c1ccccc1.[Na+].[Na+].[Na+].[Na+] [Cibacron Red, Cibacron brilliant red 3B-A] | 0% | strong inhibition | strong inhibition |  | inhibition of 3 kD dextran release / pore formation [1, 4]: 100%; inhibition of T domain membrane pore formation ([2]; 10 μM inhibitor, about 5 μg of T domain, 3 kD CB-dextran): 87%; quenching of 3 kD CB-dextran [2, 5]: about 9%
O=S(=O)([O-])c1ccc2c(N=Nc3ccc(S(=O)(=O)[O-])c4ccccc34)c(O)c(S(=O)(=O)[O-])cc2c1.[Na+].[Na+].[Na+] [amaranth, 3-Hydroxy-4-[(4-sulfo-1-naphthalenyl)azo]2,7-naphthalenedisulfonic acid trisodium salt] | about 50% | weak inhibitor |  |  | inhibition at 10 µM [1]: ~30%
Nc1c(S(=O)(=O)O)cc(Nc2ccc(Nc3nc(Cl)nc(Nc4ccccc4S(=O)(=O)O)n3)c(S(=O)(=O)O)c2)c2c1C(=O)c1ccccc1C2=O [Cibacron Blue, Cibacron Blue F3G-A] |  | Strong inhibition | somewhat less inhibition | inhibitors of diphtheria toxin translocation | quenching for all the dextrans ([1]; 10 μM inhibitor, 1.0 μg of toxin, all the dextrans): 0%; inhibition of 3 kD dextran release / pore formation [1, 4]: completely inhibited; inhibition at 10 µM [2]: ~22%
CCN1C(=O)C=CC1=O [NEM] |  |  |  | inhibitors of diphtheria toxin translocation | 
O=S(=O)(O)c1cc(N=C=S)ccc1/C=C/c1ccc(N=C=S)cc1S(=O)(=O)O [DIDS] |  |  |  | inhibitors of diphtheria toxin translocation | 
O=S(=O)(O)c1ccc(N=Nc2ccc(N=Nc3c(O)c(S(=O)(=O)O)cc4cc(S(=O)(=O)O)ccc34)c(S(=O)(=O)O)c2)cc1 [Ponceau S, 3-hydroxy-4-[2-sulfo-4(4-sulfophenylazo)phenylazo]-2,7-naphthalenedisulfonic acid] | about 25% | moderate inhibition | strong inhibition |  | inhibition at 10 µM [1]: ~67%; quenching of 3 kD CB-dextran [2, 5]: about 20%; inhibition at 10 µM [2]: ~70%
COc1cc(S(=O)(=O)O)c2ccc3c(S(=O)(=O)O)cc(S(=O)(=O)O)c4ccc1c2c43 [MPT, 8-methoxy-pyrene 1,3,6-trisulfonic acid] |  |  |  |  | diphtheria toxin pore formation inhibited (in words) ([1]; MPT as entrapped reporter, higher toxin concentrations, MPT released less than 3 kD CB-dextran): inhibited
